Literature values as cited in patent publication US9782610B2, “Nontoxic, non-endocrine disrupting, cytoprotective, UV-radiation resistant sunblock compositions” (3rd Rock Sunblock, Inc., priority 2007, dated 2017).

Experiments:
estrogenic activity = conditions: uterine wet weight, cell height, cell proliferation assays

Row | SMILES | activity in cells / cancer cell growth (cancer cells) | estrogenicity (estrogenic activity)
1 | Cc1ccc(C=C2C(=O)C3(C)CCC2C3(C)C)cc1 (stereo not drawn) [Example 4-MBC, 3-(4-methylbenxylidene) camphor] | made cancer cells grow more rapidly | highly estrogenic
2 | CC1CC(OC(=O)c2ccccc2O)CC(C)(C)C1 (stereo not drawn) [homosalate] | made cancer cells grow more rapidly | –
3 | COc1ccc(C(=O)c2ccccc2)c(O)c1 [Benzophenone-3] | made cancer cells grow more rapidly | highly estrogenic
4 | CCCCC(CC)COC(=O)c1ccc(N(C)C)cc1 (stereo not drawn) [octyl-dimethyl-PABA] | made cancer cells grow more rapidly | –
